The results in this text go back to patent publication US20170166928A1, “Compositions And Methods For Genetically Modifying Yeast” (priority 2015, published 2017).

This assay concerns Candida albicans. Kind of assay: Growth of Candida albicans strains in medium with drug. Format: cell-based. To be noted: for drug resistance of cdr1/cdr1 cdr2/cdr2 double mutants versus parental isolate: clinical isolate Can90; for doubling time: liquid growth in 1.2 μg/ml fluconazole. On the procedure: Candida albicans strain SC5314 was used for all experiments unless otherwise noted. The fluconazole-resistant C. albicans strain Can90 was kindly provided by the Massachusetts General Hospital. Yeast strains were grown in YPD (1% Bacto Yeast extract, 2% Bacto Peptone, 2% Dextrose) medium supplemented with 0.27 mM uridine, and selected using Nourseothricin (Nat) at a concentration of 200 μg/ml. Transformations were performed using the lithium acetate method (27). Flipout of Nat^R gene from Cas9-expressing Duet vector pV1025 was done by induction of flippase by growth in Difco yeast carbon base with bovine serum albumin, and screening for isolates that had lost the Nat^R gene. Filamentation experiments were performed with yeast grown overnight in liquid YPD, washed twice in RPMI-1640 medium (Cat #22400-105, Life Technologies) supplemented with 10% fetal bovine serum, and incubated in RPMI+10% FBS for the indicated time at a starting OD of 0.1. Growth curves were performed in a clear-bottomed 96-well plate, incubated with shaking at 30° C. in a Tecan Saphire^2 plate reader, reading optical density at 600 nm every 5 minutes for the indicated time. YPD-grown overnight yeast cultures were used to inoculate these wells to an initial OD of 0.05. CRISPR-mutagenized loci were verified by sequence analysis of PCR products amplified from the target locus and by restriction digest where applicable.

Take `C[C@@H]1C[C@@H]([C@H](O)CC2CC(=O)NC(=O)C2)C(=O)[C@@H](C)C1` [cycloheximide]: the “drug resistance of cdr1/cdr1 cdr2/cdr2 double mutants versus parental isolate” value is reported as “no longer displayed the hyper-resistance”.

Regarding `OC(Cn1cncn1)(Cn1cncn1)c1ccc(F)cc1F` [fluconazole], the “drug resistance of cdr1/cdr1 cdr2/cdr2 double mutants versus parental isolate” value is recorded as “no longer displayed the hyper-resistance”. Also, the “drug sensitivity of snf1-K81R strain” value (SC5314 snf1-K81R) was “hypersensitive”. The same compound had a doubling time (ade2 CDR1 CDR2 strain) of 6 h. This compound also showed a doubling time (ade2 cdr1 cdr2 mutant) of 12 h.
